Laboratory results as given in patent US20250376469A1, “INDOLIZINE DERIVATIVES FOR TREATING TRPM3-MEDIATED DISORDERS” (Katholieke Universiteit Leuven, priority 2022, published 2025).

target: T1, mouse TRPM3α2 (mTRPM3) ion channel (Mus musculus, UniProt J9SQF3); assay: TRPM3 ion channel driven Ca2+ uptake (Fluo-4 AM assay, pregnenolone sulfate stimulated); format: cell-based; details: TRPM3 overexpressing flip-in HEK293 cells, channel opened with pregnenolone sulfate (PS) 50 μM, 2.4 mM Ca2+
T1 construct: expressed in transfected cells; host or cells: flip-in HEK293
Protocol: In order to monitor the inhibition of the mouse TRPM3α2 (mTRPM3) ion channel by the compounds of the invention, a cellular system making use of an mTRPM3alpha2 or hTRPM3 overexpressing cell line (flip-in HEK293) was used. The TRPM3 channel was stimulated/opened with Pregnenolone sulfate (PS) (50 μM) which results in Ca^2+ influx.
For mTRPM3, the intracellular Ca^2+ was measured with a Calcium responsive dye, Fluor-4 AM ester (Invitrogen). Cells were cultured until a confluence of 80-90%, washed with Versene (Invitrogen) and detached from the surface by a short incubation with 0.05% Trypsin (Invitrogen). The trypsination process was stopped by the addition of complete cell culture medium (DMEM, glutamax, 10% FCS, NEAA, Pen-Strep). Cells were collected and resuspended in Krebs buffer without Calcium at RT.
Prior the cell seeding (±2000 cells/well into a black, 384 well plate (Greiner)) the diluted compound was added in the assay plate, together with the PS dissolved in Krebs buffer containing Calcium. […] Directly after cell addition the plates were read on an Envision fluorescence reader (Perkin Elmer) by an Excitation of 485 nm and emission at 535 nm.
Channel inhibition was calculated compared to a non-PS stimulated control versus a condition stimulated with PS (50 μM) with vehicle. The ability of a the compounds of the invention to inhibit this activity was determined as: Percentage inhibition=[1−((RFU determined for sample with test compound present−RFU determined for sample with positive control inhibitor) divided by (RFU determined in the presence of vehicle−RFU determined for sample with positive control inhibitor))]*100.
The activities of the Example compounds […] tested are depicted in the table below. The activity ranges A, B and C refer to IC50 values in the Fluo-4 AM assay as follows: […]

T1 sequence (J9SQF3 1-1709 isoform J9SQF3-12): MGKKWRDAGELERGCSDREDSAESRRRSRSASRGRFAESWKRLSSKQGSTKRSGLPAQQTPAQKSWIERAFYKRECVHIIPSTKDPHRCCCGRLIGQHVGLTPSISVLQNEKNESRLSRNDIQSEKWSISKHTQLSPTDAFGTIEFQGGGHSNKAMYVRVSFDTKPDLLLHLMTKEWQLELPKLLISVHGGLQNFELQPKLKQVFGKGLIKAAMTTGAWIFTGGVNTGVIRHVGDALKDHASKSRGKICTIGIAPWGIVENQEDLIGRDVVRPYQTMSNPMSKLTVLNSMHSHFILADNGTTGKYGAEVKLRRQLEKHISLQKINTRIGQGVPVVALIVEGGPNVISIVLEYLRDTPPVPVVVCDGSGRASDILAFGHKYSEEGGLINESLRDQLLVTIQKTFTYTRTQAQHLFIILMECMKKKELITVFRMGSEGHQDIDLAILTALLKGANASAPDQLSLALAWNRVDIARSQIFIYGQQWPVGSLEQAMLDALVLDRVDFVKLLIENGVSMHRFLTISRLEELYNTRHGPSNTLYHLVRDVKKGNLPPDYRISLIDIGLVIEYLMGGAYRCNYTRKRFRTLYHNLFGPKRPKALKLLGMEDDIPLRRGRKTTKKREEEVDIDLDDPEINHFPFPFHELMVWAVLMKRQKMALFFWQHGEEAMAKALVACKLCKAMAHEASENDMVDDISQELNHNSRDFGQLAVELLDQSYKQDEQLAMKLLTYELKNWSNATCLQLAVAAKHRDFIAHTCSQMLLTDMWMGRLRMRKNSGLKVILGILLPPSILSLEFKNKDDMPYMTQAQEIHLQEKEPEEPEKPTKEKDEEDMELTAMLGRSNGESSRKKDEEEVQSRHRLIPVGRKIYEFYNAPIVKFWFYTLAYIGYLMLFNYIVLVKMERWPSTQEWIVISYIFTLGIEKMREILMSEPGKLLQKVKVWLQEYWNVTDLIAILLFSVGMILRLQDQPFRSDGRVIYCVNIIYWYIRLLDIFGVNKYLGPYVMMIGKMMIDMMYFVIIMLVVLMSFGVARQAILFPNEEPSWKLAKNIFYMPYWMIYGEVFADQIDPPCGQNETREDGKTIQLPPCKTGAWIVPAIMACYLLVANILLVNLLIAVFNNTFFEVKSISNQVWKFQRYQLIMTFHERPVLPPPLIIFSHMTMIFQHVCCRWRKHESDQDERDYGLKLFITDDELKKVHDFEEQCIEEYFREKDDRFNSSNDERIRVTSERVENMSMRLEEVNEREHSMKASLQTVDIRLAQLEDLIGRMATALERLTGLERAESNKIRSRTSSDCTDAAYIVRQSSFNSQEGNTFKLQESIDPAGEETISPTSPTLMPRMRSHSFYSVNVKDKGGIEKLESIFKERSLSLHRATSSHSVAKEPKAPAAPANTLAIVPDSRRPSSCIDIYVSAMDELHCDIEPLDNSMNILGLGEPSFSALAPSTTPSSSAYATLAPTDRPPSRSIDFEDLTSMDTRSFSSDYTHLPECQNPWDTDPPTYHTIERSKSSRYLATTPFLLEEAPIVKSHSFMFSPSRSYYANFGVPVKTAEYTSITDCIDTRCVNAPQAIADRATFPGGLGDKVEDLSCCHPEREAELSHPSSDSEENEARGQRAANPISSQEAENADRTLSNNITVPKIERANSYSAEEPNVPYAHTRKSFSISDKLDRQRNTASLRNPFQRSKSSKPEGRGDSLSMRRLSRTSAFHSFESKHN

Row | SMILES | IC50
1 | Cc1cc2ccc(OCc3scnc3C)cn2c1C(=O)NC1(CO)CCOCC1 [Cpd 001, N-[4-(hydroxymethyl)oxan-4-yl]-2-methyl-6-[(4-methyl-1,3-thiazol-5-yl)methoxy]indolizine-3-carboxamide] | 1 to 20 µM
2 | Cc1cc2ccc(OCc3cnccn3)cn2c1C(=O)NC(CO)CC(F)(F)F (single isomer, unassigned) [Cpd 041 - En2] | > 20 µM
3 | Cc1cc2ccc(OCc3cccnc3)cn2c1C(=O)NC(CO)CC(F)(F)F (single isomer, unassigned) [Cpd 042 - En1] | < 1 µM
4 | Cc1cc2ccc(OCc3cnccn3)cn2c1C(=O)NC(CO)CC(F)(F)F (single isomer, unassigned) [Cpd 041 - En1] | 1 to 20 µM
5 | Cc1ncc(COc2ccc3cc(C)c(C(=O)NC(C)(CO)C(N)=O)n3c2)s1 (single isomer, unassigned) [Cpd 029 - En2, 3-hydroxy-2-methyl-2-({2-methyl-6-[(2-methyl-1,3-thiazol-5-yl)methoxy]indolizin-3-yl}formamido)propanamide] | 1 to 20 µM
6 | Cc1cc2ccc(OCc3ccccn3)cn2c1C(=O)NC(C)C(N)=O (single isomer, unassigned) [Cpd 018 - En1] | 1 to 20 µM
7 | Cc1ncc(COc2ccc3cc(C)c(C(=O)NC(C)(CO)CO)n3c2)s1 [Cpd 030, N-(1,3-dihydroxy-2-methylpropan-2-yl)-2-methyl-6-[(2-methyl-1,3-thiazol-5-yl)methoxy]indolizine-3-carboxamide] | < 1 µM
8 | Cc1cc2ccc(OCC3CC3)cn2c1C(=O)NC(C)(CO)C(N)=O (single isomer, unassigned) [Cpd 019 - En2] | 1 to 20 µM
9 | Cc1cc2ccc(OCc3ccccn3)cn2c1C(=O)NC(C)(CO)CO [Cpd 015, N-(1,3-dihydroxy-2-methylpropan-2-yl)-2-methyl-6-[(pyridin-2-yl)methoxy]indolizine-3-carboxamide] | < 1 µM
10 | Cc1cc2ccc(OCc3ccccn3)cn2c1C(=O)NC1CNCCC1(F)F (single isomer, unassigned) [Cpd 017 - En1, N-(4,4-difluoropiperidin-3-yl)-2-methyl-6-[(pyridin-2-yl)methoxy]indolizine-3-carboxamide] | 1 to 20 µM
11 | Cc1cc2ccc(OCc3ccccc3F)cn2c1C(=O)NC(C)(CO)C(N)=O (single isomer, unassigned) [Cpd 005 - En2, 2-({6-[(2-fluorophenyl)methoxy]-2-methylindolizin-3-yl}formamido)-3-hydroxy-2-methylpropanamide] | < 1 µM
12 | COCC(C)(CO)NC(=O)c1c(C)cc2ccc(OCc3ccccn3)cn12 (single isomer, unassigned) [Cpd 032 - En2] | < 1 µM
13 | Cc1cc2ccc(OCC(F)F)cn2c1C(=O)NC(C)(CO)CO [Cpd 025, 6-(2,2-difluoroethoxy)-N-(1,3-dihydroxy-2-methylpropan-2-yl)-2-methylindolizine-3-carboxamide] | 1 to 20 µM
14 | Cc1cc2ccc(OCc3ccccn3)cn2c1C(=O)NC1(CO)CCNC1=O (single isomer, unassigned) [Cpd 016 - En1] | < 1 µM
